# Patent US11078170B2 (Assembly Biosciences, Inc., priority 2017, dated 2021)
# Test system: HBV viral production from HepAD38 cells
# Experiment: Activity of test compounds on viral production from HepAD38 cells (viral load by qPCR of HBV core sequence in supernatant)
# Assay type: cell-based
# Conditions: Hepatitis B virus, 120 h, 5 days incubation, HBV DNA in supernatant by qPCR, top concentration 10 μM, read-out: Viral Load EC50 Activity range
# Method in brief: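 HepAD38 cells, 50,000/well in tetracycline-free 2% FBS medium, treated 5 days at 37° C. with compound from 10 μM top concentration. HBV DNA in supernatant quantified by TaqMan qPCR of core sequence against DNA standards, relative to DMSO wells; CellTiter-Glo viability read in parallel. EC50/CC50 from four-parameter logistic fit.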
row,Structure (SMILES),EC50 [nM]
1,"CN1C(C(=O)Nc2ccc(F)c(Cl)c2)CC(c2ccc(-c3ccc(NS(C)(=O)=O)cc3)s2)NS1(=O)=O (racemic) [HBV-CSU-163, Cis-N-(3-chloro-4-fluorophenyl)-2-methyl-5-(5-(4-(methylsulfonamido)phenyl)thiophen-2-yl)-1,2,6-thiadiazinane-3-carboxamide 1,1-dioxide]",< 1000
2,"[2H]C1C([2H])(c2ccc(Br)s2)NS(=O)(=O)N(C([2H])([2H])[2H])C1([2H])C(=O)Nc1ccc(F)c(Cl)c1 (stereo not drawn) [HBV-CSU-372, Cis-5-(5-bromothiophen-2-yl)-N-(3-chloro-4-fluorophenyl)-2-(methyl-d3)-1,2,6-thiadiazinane-3,4,5-d3-3-carboxamide 1,1-dioxide]",< 1000
3,"[2H]C1[C@]([2H])(C(=O)Nc2ccc(F)c(Cl)c2)N(C([2H])([2H])[2H])S(=O)(=O)N[C@]1([2H])c1ncc(-c2cn(C([2H])([2H])[2H])cn2)s1 (stereo in doubt) [HBV-CSU-339-ISO-II, Cis-N-(3-Chloro-4-fluorophenyl)-2-(methyl-d3)-5-(5-(1-(methyl-d3)-1H-imidazol-4-yl)thiazol-2-yl)-1,2,6-thiadiazinane-3,4,5-d3-3-carboxamide 1,1-dioxide]",1000 to 5000
4,"CC(C)(C)OCCN1C(C(=O)Nc2ccc(F)c(Cl)c2)CC(c2nccs2)NS1(=O)=O (racemic) [HBV-CSU-071, Cis-2-(2-(tert-Butoxy)ethyl)-N-(3-chloro-4-fluorophenyl)-5-(thiazol-2-yl)-1,2,6-thiadiazinane-3-carboxamide 1,1-dioxide]",1000 to 5000
5,"CN1C(C(=O)Nc2ccc(F)c(Cl)c2)CC(c2ccc(Br)c(F)c2)NS1(=O)=O (stereo not drawn) [HBV-CSU-283, Cis-5-(4-Bromo-3-fluorophenyl)-N-(3-chloro-4-fluorophenyl)-2-methyl-1,2,6-thiadiazinane-3-carboxamide 1,1-dioxide]",< 1000
6,"CN1C(C(=O)Nc2ccc(F)c(Cl)c2)CC(c2ncc(-c3cn[nH]c3)s2)NS1(=O)=O (racemic) [HBV-CSU-254, Cis-5-(5-(1H-pyrazol-4-yl)thiazol-2-yl)-N-(3-chloro-4-fluorophenyl)-2-methyl-1,2,6-thiadiazinane-3-carboxamide 1,1-dioxide]",< 1000
7,"CN1C(C(=O)Nc2ccc(F)c(Cl)c2)CC(c2cc(Cl)c(Br)s2)NS1(=O)=O (stereo not drawn) [HBV-CSU-329, Cis-5-(5-bromo-4-chlorothiophen-2-yl)-N-(3-chloro-4-fluorophenyl)-2-methyl-1,2,6-thiadiazinane-3-carboxamide 1,1-dioxide]",< 1000
8,"CN1[C@@H](C(=O)Nc2ccc(F)c(Cl)c2)C[C@@H](c2ncc(-c3ccc(F)cn3)s2)NS1(=O)=O [HBV-CSU-252-ISO-II, Cis-N-(3-Chloro-4-fluorophenyl)-5-(5-(5-fluoropyridin-2-yl)thiazol-2-yl)-2-methyl-1,2,6-thiadiazinane-3-carboxamide 1,1-dioxide]",> 5000
9,"CN1C(C(=O)Nc2cccc(C#N)c2)CC(c2cccs2)NS1(=O)=O (racemic) [HBV-CSU-020, Cis-N-(3-cyanophenyl)-2-methyl-5-(thiophen-2-yl)-1,2,6-thiadiazinane-3-carboxamide 1,1-dioxide]",< 1000
10,"CN1C(C(=O)Nc2ccc(F)c(Cl)c2)CC(c2ccc(-c3cncnc3)s2)NS1(=O)=O (racemic) [HBV-CSU-272, Cis-N-(3-chloro-4-fluorophenyl)-2-methyl-5-(5-(pyrimidin-5-yl)thiophen-2-yl)-1,2,6-thiadiazinane-3-carboxamide 1,1-dioxide]",< 1000
11,"CN1C(C(=O)Nc2ccc(F)c(Cl)c2)CC(c2ncc(-c3ccc(F)cc3)s2)NS1(=O)=O (racemic) [HBV-CSU-248, Cis-N-(3-Chloro-4-fluorophenyl)-5-(5-(4-fluorophenyl)thiazol-2-yl)-2-methyl-1,2,6-thiadiazinane-3-carboxamide 1,1-dioxide]",< 1000
12,"CN1[C@H](C(=O)Nc2ccc(F)c(Cl)c2)C[C@H](c2ccc(-c3cn(C)cn3)s2)NS1(=O)=O [HBV-CSU-266-ISO-I, (3S,5R)-N-(3-chloro-4-fluorophenyl)-2-methyl-5-(5-(1-methyl-1H-imidazol-4-yl)thiophen-2-yl)-1,2,6-thiadiazinane-3-carboxamide 1,1-dioxide]",< 1000
13,"CN1[C@@H](C(=O)Nc2ccc(F)c(Cl)c2)C[C@@H](c2ccc(-c3cccnc3)s2)NS1(=O)=O [HBV-CSU-159-ISO-I, Cis-N-(3-chloro-4-fluorophenyl)-2-methyl-5-(5-(pyridin-3-yl)thiophen-2-yl)-1,2,6-thiadiazinane-3-carboxamide 1,1-dioxide]",1000 to 5000
14,"COCCN1C(C(=O)Nc2ccc(F)c(Cl)c2)CC(c2nccs2)NS1(=O)=O (racemic) [HBV-CSU-058, Cis-N-(3-chloro-4-fluorophenyl)-2-(2-methoxyethyl)-5-(thiazol-2-yl)-1,2,6-thiadiazinane-3-carboxamide 1,1-dioxide]",< 1000
15,"CN1[C@@H](C(=O)Nc2ccc(F)c(Cl)c2)C[C@@H](c2ccc(-c3cn(C)cn3)s2)NS1(=O)=O [HBV-CSU-266-ISO-II, Cis-N-(3-Chloro-4-fluorophenyl)-2-methyl-5-(5-(1-methyl-1H-imidazol-4-yl)thiophen-2-yl)-1,2,6-thiadiazinane-3-carboxamide 1,1-dioxide]",1000 to 5000
16,"CN1C(C(=O)Nc2ccc(F)c(Cl)c2)CC(c2cc(-c3ncnn3C)cs2)NS1(=O)=O (racemic) [HBV-CSU-327, Cis-N-(3-Chloro-4-fluorophenyl)-2-methyl-5-(4-(1-methyl-1H-1,2,4-triazol-5-yl)thiophen-2-yl)-1,2,6-thiadiazinane-3-carboxamide 1,1-dioxide]",< 1000
17,"CN1[C@H](C(=O)Nc2ccc(F)c(Cl)c2)C[C@H](c2cc(-c3ccn(C)n3)cs2)NS1(=O)=O [HBV-CSU-288-ISO-I, Cis-N-(3-Chloro-4-fluorophenyl)-2-methyl-5-(4-(1-methyl-1H-pyrazol-3-yl)thiophen-2-yl)-1,2,6-thiadiazinane-3-carboxamide 1,1-dioxide]",< 1000
18,"CN1C(C(=O)Nc2ccc(F)c(Cl)c2)CC(c2cc(-c3cnn(C(F)(F)F)c3)cs2)NS1(=O)=O (racemic) [HBV-CSU-325, Cis-N-(3-Chloro-4-fluorophenyl)-2-methyl-5-(4-(1-(trifluoromethyl)-1H-pyrazol-4-yl)thiophen-2-yl)-1,2,6-thiadiazinane-3-carboxamide 1,1-dioxide]",< 1000
19,"CN1[C@H](C(=O)Nc2ccc(F)c(Cl)c2)C[C@H](c2ncc(-c3cn(C)cn3)s2)NS1(=O)=O [HBV-CSU-276-ISO-I, (3S,5R)-N-(3-chloro-4-fluorophenyl)-2-methyl-5-(5-(1-methyl-1H-imidazol-4-yl)thiazol-2-yl)-1,2,6-thiadiazinane-3-carboxamide 1,1-dioxide]",< 1000
20,CN1[C@H](C(=O)Nc2ccc(F)c(Cl)c2)C[C@H](c2cc(-c3ccc(F)cc3)cs2)NS1(=O)=O [HBV-CSU-239-ISO-I],< 1000
21,"CN1[C@@H](C(=O)Nc2ccc(F)c(Cl)c2)C[C@@H](c2ncc(-c3ccccn3)s2)NS1(=O)=O [HBV-CSU-176-ISO-II, Cis-N-(3-chloro-4-fluorophenyl)-2-methyl-5-(5-(pyridin-2-yl)thiazol-2-yl)-1,2,6-thiadiazinane-3-carboxamide 1,1-dioxide]",> 5000
22,"[2H]C1[C@]([2H])(c2ncc(-c3cn(C([2H])([2H])[2H])cn3)s2)NS(=O)(=O)N(C([2H])([2H])[2H])[C@]1([2H])C(=O)Nc1ccc(F)c(Cl)c1 (stereo in doubt) [HBV-CSU-339-ISO-I, Cis-N-(3-Chloro-4-fluorophenyl)-2-(methyl-d3)-5-(5-(1-(methyl-d3)-1H-imidazol-4-yl)thiazol-2-yl)-1,2,6-thiadiazinane-3,4,5-d3-3-carboxamide 1,1-dioxide]",< 1000
23,CN1C(C(=O)Nc2ccc(F)c(Cl)c2)CC(c2ncc(-c3ccccc3)s2)NS1(=O)=O (centres unmarked),< 1000
24,"CN1C(C(=O)Nc2ccc(F)c(Cl)c2)CC(c2cc(-c3ncn(C)n3)cs2)NS1(=O)=O (racemic) [HBV-CSU-326, Cis-N-(3-chloro-4-fluorophenyl)-2-methyl-5-(4-(1-methyl-1H-1,2,4-triazol-3-yl)thiophen-2-yl)-1,2,6-thiadiazinane-3-carboxamide 1,1-dioxide]",< 1000
25,"CN1[C@@H](C(=O)Nc2ccc(F)c(Cl)c2)C[C@@H](c2cc(-c3nncn3C)cs2)NS1(=O)=O [HBV-CSU-328-ISO-II, Cis-N-(3-chloro-4-fluorophenyl)-2-methyl-5-(4-(4-methyl-4H-1,2,4-triazol-3-yl)thiophen-2-yl)-1,2,6-thiadiazinane-3-carboxamide 1,1-dioxide]",> 5000
26,"O=C(Nc1ccc(F)c(Cl)c1)C1CC(c2nccs2)NS(=O)(=O)N1CCCN1CCCC1 (stereo not drawn) [HBV-CSU-102, Cis-N-(3-Chloro-4-fluorophenyl)-2-(3-(pyrrolidin-1-yl)propyl)-5-(thiazol-2-yl)-1,2,6-thiadiazinane-3-carboxamide 1,1-dioxide]",> 5000
27,"CN1[C@H](C(=O)Nc2ccc(F)c(Cl)c2)C[C@H](c2ccc(-c3cnn(C)c3)cc2)NS1(=O)=O [HBV-CSU-246-ISO-II, Cis-N-(3-Chloro-4-fluorophenyl)-2-methyl-5-(4-(1-methyl-1H-pyrazol-4-yl)phenyl)-1,2,6-thiadiazinane-3-carboxamide 1,1-dioxide]",< 1000
28,"COCCN1[C@@H](c2cccs2)C[C@@H](C(=O)Nc2ccc(F)c(Cl)c2)NS1(=O)=O [HBV-CSU-044-ISO-II, Cis-N-(3-Chloro-4-fluorophenyl)-6-(2-methoxyethyl)-5-(thiophen-2-yl)-1,2,6-thiadiazinane-3-carboxamide 1,1-dioxide]",> 5000
29,"CN1[C@@H](C(=O)Nc2ccc(F)c(Cl)c2)C[C@@H](c2ncc(-c3ccn(C)n3)s2)NS1(=O)=O (stereo in doubt) [HBV-CSU-280-ISO-II, Cis-N-(3-Chloro-4-fluorophenyl)-2-methyl-5-(5-(1-methyl-1H-pyrazol-3-yl)thiazol-2-yl)-1,2,6-thiadiazinane-3-carboxamide 1,1-dioxide]",< 1000
